Measurements as given in ChEMBL document CHEMBL2176967, “Radiofluorinated derivatives of 2-(phosphonomethyl)pentanedioic acid as inhibitors of prostate specific membrane antigen (PSMA) for the imaging of prostate cancer” (J Med Chem, 2012).

Experiments:
[1] = biological target: T1, Glutamate carboxypeptidase 2 (Homo sapiens, UniProt Q04609); assay: Binding affinity to NAALADase
[2] = biological target: T1, Glutamate carboxypeptidase 2; assay: biochemical
Description: Inhibition of NAALADase activity in human LNCaP cell membranes assessed as inhibition of [3H]NAG conversion to [3H]glutamate after 30 mins by liquid scintillation counting

[3] = Drug level in human LNCaP cells xenografted Balb/c mouse tumor at 10 MBq, iv measured after 45 to 130 mins by PET/CT scanning in presence of unlabelled compound; format: ADME, organism-based, Neoplasm; conditions: in vivo
[4] = Drug level in human LNCaP cells xenografted Balb/c mouse gut at 10 MBq, iv measured after 45 to 130 mins by PET/CT scanning; format: ADME, organism-based; conditions: in vivo
[5] = tested on: Kidney; assay: Drug level in human LNCaP cells xenografted Balb/c mouse kidney at 10 MBq, iv measured after 45 to 130 mins by PET/CT scanning in presence of unlabelled compound; format: ADME, organism-based; conditions: in vivo
[6] = Drug level in human LNCaP cells xenografted Balb/c mouse tumor at 10 MBq, iv measured after 45 to 130 mins by PET/CT scanning; format: ADME, organism-based, Neoplasm; conditions: in vivo
[7] = tested on: Kidney; assay: Drug level in human LNCaP cells xenografted Balb/c mouse kidney at 10 MBq, iv measured after 45 to 130 mins by PET/CT scanning; format: ADME, organism-based; conditions: in vivo
[8] = tested on: Bone; assay: Drug level in human LNCaP cells xenografted Balb/c mouse bone at 10 MBq, iv measured after 45 to 130 mins by PET/CT scanning; format: ADME, organism-based, Bone element; conditions: in vivo
[9] = tested on: Liver; assay: Drug level in human LNCaP cells xenografted Balb/c mouse liver at 10 MBq, iv measured after 45 to 130 mins by PET/CT scanning; format: ADME, organism-based; conditions: in vivo
[10] = tested on: Urinary bladder; assay: Drug level in human LNCaP cells xenografted Balb/c mouse bladder at 10 MBq, iv measured after 45 to 130 mins by PET/CT scanning; format: ADME, organism-based; conditions: in vivo

T1 sequence (Q04609 whole entry): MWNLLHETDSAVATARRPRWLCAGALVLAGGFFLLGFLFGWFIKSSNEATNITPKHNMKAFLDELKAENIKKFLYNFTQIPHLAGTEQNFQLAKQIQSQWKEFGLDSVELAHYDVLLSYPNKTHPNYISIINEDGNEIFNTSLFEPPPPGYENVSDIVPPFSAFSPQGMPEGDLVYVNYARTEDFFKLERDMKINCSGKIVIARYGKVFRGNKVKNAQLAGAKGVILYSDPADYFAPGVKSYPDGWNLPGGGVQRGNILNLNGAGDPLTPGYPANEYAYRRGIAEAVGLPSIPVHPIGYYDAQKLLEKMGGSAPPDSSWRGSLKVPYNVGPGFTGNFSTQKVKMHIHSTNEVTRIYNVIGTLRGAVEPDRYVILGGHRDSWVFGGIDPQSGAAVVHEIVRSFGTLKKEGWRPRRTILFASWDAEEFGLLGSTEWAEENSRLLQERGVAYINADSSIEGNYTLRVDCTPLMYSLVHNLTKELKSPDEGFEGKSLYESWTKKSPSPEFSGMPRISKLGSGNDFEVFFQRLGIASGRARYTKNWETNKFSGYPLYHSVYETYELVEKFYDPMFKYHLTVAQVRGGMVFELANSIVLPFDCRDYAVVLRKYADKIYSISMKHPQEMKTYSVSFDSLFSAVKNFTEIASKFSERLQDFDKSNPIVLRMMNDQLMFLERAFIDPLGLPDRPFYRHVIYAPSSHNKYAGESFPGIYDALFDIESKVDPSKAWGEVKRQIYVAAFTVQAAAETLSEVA

| SMILES | Ki [1] [nM] | IC50 [2] [nM] | Ki [2] [nM] | also measured |
| --- | --- | --- | --- | --- |
| C[C@@H](C[C@H](NC(=O)N[C@@H](C[C@H](C)C(=O)O)C(=O)O)C(=O)O)C(=O)O | 1110 | – | – | – |
| C[C@H](C[C@H](NC(=O)N[C@@H](C[C@@H](C)C(=O)O)C(=O)O)C(=O)O)C(=O)O | 1280 | – | – | – |
| O=C(O)[C@@H](C[C@@H](F)C(=O)O)CP(=O)(O)O | – | 89.4 | 36.4 | – |
| O=C(O)[C@H](C[C@H](F)C(=O)O)CP(=O)(O)O | – | 3.1 | 1.4 | – |
| O=C(O)[C@H](C[C@@H](F)C(=O)O)CP(=O)(O)O | – | 8.1 | 3.1 | – |
| O=C(O)[C@@H](C[C@H](F)C(=O)O)CP(=O)(O)O | – | 55.9 | 22 | – |
| O=C(N[C@@H](C[C@@H](Cc1ccccc1)C(=O)O)C(=O)O)N[C@@H](C[C@@H](Cc1ccccc1)C(=O)O)C(=O)O | 392 | – | – | – |
| O=C(O)CCCC(CP(=O)(O)O)C(=O)O (stereo not drawn) | – | – | – | IC50 [1]: 185 nM |
| O=C(O)CC[C@H](NC(=O)N[C@@H](CCC(=O)O)C(=O)O)C(=O)O | 8 | – | – | – |
| O=C(O)C([18F])CC(CP(=O)(O)O)C(=O)O (racemic) | – | – | – | Drug uptake [3]: Not Active; Drug uptake [4]: Not Active; Drug uptake [5]: Not Active; Drug uptake [6]: Active; Drug uptake [7]: Active; Drug uptake [8]: Active; Drug uptake [9]: Not Active; Drug uptake [10]: Active |
| O=C(O)C(F)CC(CP(=O)(O)O)C(=O)O (racemic) | – | 6.8 | 2.6 | – |
